What was measured:
Mouse T cells [1] = test: cytokine production after brief anti-CD3/anti-CD28 stimulation; format: cell-based; details: 10 days, 0.5 μM
Description: Mouse T cells were stimulated and expanded for 10 days in vitro in the presence of 0.5 μM p38 inhibitor. Cells were briefly stimulated with anti-CD3/anti-CD28 in the presence of GOLGI-STOP protein transport inhibitor and GOLGI-PLUG protein transport inhibitor to determine the cytokine production ability of cells. As shown in FIGS. 10A-10C, IFN-gamma and IL-2 production increased following […] treatment. TNF alpha production decreased following […] treatment.

Mouse T cells [2] = test: metabolome analysis; format: cell-based; details: 5 days, 0.5 μM, vs vehicle
Description: Mouse T cells were stimulated and the numbers of cells were expanded for 5 days in vitro in the presence of 0.5 μM p38 inhibitor. […] FIG. 7B is a schematic illustrating glycolysis and the citric acid cycle.

[3] = tested on: human healthy donor derived T cells and melanoma patient-derived T cells; test: human T cells expanded 20-25 days with p38i: CD8+CD62L+ cells; format: cell-based; details: 0.5 uM p38i, vs vehicle
Description: The numbers of human healthy donor derived T cells and melanoma patient-derived T cells were expanded for 20-25 days in presence of 0.5 uM […]. The percentage of CD8+CD62L+ cells was measured.

Mouse T cells [4] = test: RNA extraction and qPCR gene expression; format: cell-based; details: 5 days, 0.5 μM, qPCR
Description: Mouse T cells were stimulated and expanded for 5 days in vitro in the presence of 0.5 μM p38 inhibitor. RNA extraction and qPCR analysis were performed to determine differences in gene expression.

Mouse T cells [5] = test: cell proliferation by dilution of CSFE proliferation dye; format: cell-based; details: hgp100 peptide or anti-CD3/CD28 stimulation, 4 days, 0.5 μM
Description: Mouse T cells were stimulated using either hgp100 peptide or anti-CD3/CD28 antibodies, and the numbers of cells were expanded for 4 days in vitro in the presence of 0.5 μM p38 inhibitor. Cell proliferation was measured.

[6] = tested on: CD19 antigen expressing NALM6 cells; test: specific cytolysis by anti-CD19 CAR human T cells expanded with p38i; format: cell-based; details: anti-CD19 CAR T cells from 2 healthy donors, expanded 20-25 days, overnight coculture with NALM6
Description: Human T cells from 2 healthy donors were transduced with a retrovirus encoding an anti-CD19 CAR and the numbers of cells were expanded for 20-25 days in the presence of […]. Specific cytolysis was measured. […] T cells and NALM6 cells were cocultured overnight.

Mouse T cells [7] = test: apoptosis during expansion by Annexin; format: cell-based; details: 4 days, 0.5 μM
Description: Mouse T cells were stimulated and the numbers of cells were expanded for 4 days in vitro in the presence of 0.5 μM p38 inhibitor. The levels of cells which underwent apoptosis were measured.

Human T cells = test: IFN-gamma production by human T cells expanded with p38i; format: cell-based; details: human T cells expanded 20-25 days
Excerpt: Human T cells were expanded for 20-25 days in the presence of […].

Mouse T cells [8] = test: intracellular staining and FACS of phosphorylation of Akt and its substrates; format: cell-based; details: 5 days, 0.5 μM
Description: Mouse T cells were stimulated and the numbers of cells were expanded for 5 days in vitro in presence of 0.5 μM p38 inhibitor. Intracellular staining and FACS analysis was performed to measure phosphorylation of Akt and its substrates in T cells.

Mouse T cells [9] = test: cellular and mitochondrial ROS by FACS; format: cell-based; details: 10 days, 0.5 μM
Description: Mouse T cells were stimulated and expanded for 10 days in vitro in the presence of 0.5 μM p38 inhibitor. Cellular and mitochondrial ROS levels were measured using FACS analysis.

Mouse T cells [10] = test: SEAHORSE analysis of respiratory capacity; format: cell-based; details: 5 days, 0.5 μM
Description: Mouse T cells were stimulated and expanded for 5 days in vitro in the presence of 0.5 μM p38 inhibitor. SEAHORSE analysis was performed to determine spare respiratory capacity of cells.

Mouse T cells [11] = test: mouse T cells stimulated and expanded 5 days with Birb796: gamma H2AX, cell counts, CD44/CD62L; format: cell-based; details: mouse T cells expanded 5 days in vitro; with increases in the dosage of p38i
Description: Mouse T cells were stimulated and the numbers of cells were expanded for 5 days in vitro in the presence of the p38 inhibitor Birb796. The percentages of cells with high levels of gamma H2AX, the percentages of cell counts, and the expression of CD44 and CD62L were measured. As shown in FIGS. 4C-4F, with increases in the dosage of p38 inhibitor […]), the DNA damage in cells was reduced and the cell counts and percentage of CD62L+ cells were increased.

Subcutaneous tumor = test: adoptive cell transfer of Pmel-1 T cells expanded ex vivo with p38 inhibitor into tumor-bearing mice; format: in vivo; details: mice receiving Pmel-1 T cells expanded ex vivo 10 days with p38 inhibitor
Description: Subcutaneous tumor growth was measured in mice receiving adoptive cell transfer of Pmel-1 T cells which were expanded ex vivo for 10 days in the presence of p38 inhibitor. Tumor area (FIG. 10G) and overall survival (FIG. 10H) are shown. Significance for tumor growth kinetics were calculated by Wilcoxon rank-sum test. Survival significance was assessed by a log-rank Mantel-Cox test (n=5 mice per treatment group).

For `Cc1ccc(-n2nc(C(C)(C)C)cc2NC(=O)Nc2ccc(OCCN3CCOCC3)c3ccccc23)cc1` [BIRB 796, doramapimod], the IFN-gamma production (Mouse T cells [1]) was “increased”, the IL-2 production (Mouse T cells [1]) was “increased” and the TNF alpha production (Mouse T cells [1]) was “decreased”. The alpha-ketoglutarate production (Mouse T cells [2]) was “reduced”, the glucose production (Mouse T cells [2]) was “reduced” and the lactate production (Mouse T cells [2]) was “reduced”. The “production of 9-HODE/13-HODE” value (Mouse T cells [2]) was “reduced”, the “production of linoleate (18:2n6)” value (Mouse T cells [2]) was “reduced” and the “production of oxidized GSSG” value (Mouse T cells [2]) was “reduced”. The succinate production (Mouse T cells [2]) was “reduced”, the “percentage of CD8+CD62L+ cells” value ([3]; healthy donor T cells) was “increased” and the “percentage of CD8+CD62L+ cells” value ([3]; melanoma patient T cells) was “increased”. For the same compound, the “mRNA expression of Slc2a1” value (Mouse T cells [4]) was “reduced”, the “mRNA expression of catalase” value (Mouse T cells [4]) was “reduced” and the “cell proliferation (dilution of CSFE proliferation dye)” value (Mouse T cells [5]) was “did not affect cell proliferation”. The specific cytolysis [6] was “lysed in higher numbers”, the “cell death during expansion (apoptotic cell marker Annexin)” value (Mouse T cells [7]) was “reduced cell death” and the “ability to produce the effector cytokine IFN-gamma” value (Human T cells) was “enhanced ability”. For the same compound, the “phosphorylation of Akt and its substrates” value (Mouse T cells [8]) was “preserved memory-like characteristics of T cells independent of the Akt pathway”, the “mitochondrial ROS” value (Mouse T cells [9]) was “reduced” and the “total ROS” value (Mouse T cells [9]) was “reduced”. The total oxygen consumption (Mouse T cells [10]) was “increased”, the “DNA damage in cells (percentage of cells with high levels of gamma H2AX)” value (Mouse T cells [11]) was “reduced” and the cell counts (Mouse T cells [11]) was “increased”. The “percentage of CD62L+ cells” value (Mouse T cells [11]) was “increased”, the overall survival (Subcutaneous tumor) was “promote survival” and the tumor area (Subcutaneous tumor) was “enhanced the ability of the transferred cells to reduce tumor area”.

Reference: patent publication US20200316122A1, “METHODS OF PRODUCING T CELL POPULATIONS USING P38 MAPK INHIBITORS” (The United States of America,as represented by the …, priority 2017, published 2020)
